This is an account of results in paper PMC7058016, “Photoinduced damage of AsLOV2 domain is accompanied by increased singlet oxygen production due to flavin dissociation” (Scientific Reports, 2020).

The target of this assay is T1, AsLOV2 (Avena sativa, UniProt O49003, C450A).
T1 construct: gene NPH1-1; LOV2 domain, residues 404-547, N-terminal His10-tag kept (first 31 residues not native), E. coli BL21(DE3)
Briefly: co-purified holoprotein; absorption and fluorescence spectra, FMN triplet lifetime, […] kDa filtration. The assay is classed as binding. Particulars: 20 mM Tris-HCl pH 7.8, room temperature; before irradiation; no covalent adduct possible.

SMILES strings stand for the structures.

T1 sequence (O49003 entry or part of it C450A): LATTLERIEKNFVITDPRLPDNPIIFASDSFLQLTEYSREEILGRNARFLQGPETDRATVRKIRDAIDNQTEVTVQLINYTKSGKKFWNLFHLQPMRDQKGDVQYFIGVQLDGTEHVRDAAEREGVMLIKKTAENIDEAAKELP

On to `Cc1cc2nc3c(=O)[nH]c(=O)nc-3n(C[C@H](O)[C@H](O)[C@H](O)COP(=O)(O)O)c2cc1C` [flavin mononucleotide], for which the “co-purified holoprotein; absorption and fluorescence spectra, FMN triplet lifeti” value is reported as “before irradiation there was no free FMN detected in the filtrate”.
